Results from patent publication US8772495B2, “5-lipoxygenase-activating protein inhibitor” (Panmira Pharmaceuticals, LLC, priority 2008, dated 2014).
“Also recorded” adds a separate entry of the source. Read-outs that look alike come from different tables or passages of the source.

How the values were obtained:
[1] = Gravimetric vapour sorption (GVS); type: physicochemical; conditions: for XRPD pattern after the GVS experiment: after full sorption/desorption cycle; for water adsorbed (GVS): at 90% RH
Experimental: Sorption isotherms were obtained using a Hiden IGASorp moisture sorption analyser, controlled by CFRSorp software. The sample temperature was maintained at 25° C. by a Huber re-circulating water bath. The humidity was controlled by mixing streams of dry and wet nitrogen, with a total flow rate of 250 ml. min^−1. The relative humidity was measured by a calibrated Vaisala RH probe (dynamic range of 0-95% RH), located near the sample. The weight change, (mass relaxation) of the sample as a function of % RH was constantly monitored by the microbalance (accuracy ±0.001 mg).
Typically 10-20 mg of sample was placed in a tared mesh stainless steel basket under ambient conditions. The sample was loaded and unloaded at 40% RH and 25° C. (typical room conditions).
A moisture sorption isotherm was performed as outlined below (2 scans giving 1 complete cycle). The standard isotherm was performed at 25° C. at 10% RH intervals over a 0-90% RH range.
The software uses a least squares minimisation procedure together with a model of the mass relaxation, to predict an asymptotic value. The measured mass relaxation value must be within 5% of that predicted by the software, before the next % RH value is selected. The minimum equilibration time was set to 1 hour and the maximum to 4 hours.

[2] = Physical and chemical stability of polymorphs (storage, humidity chamber); type: physicochemical; conditions: for XRPD pattern after one week stability study: 40° C. and 75% RH, one week in humidity chamber
[3] = Thermodynamic aqueous solubility by HPLC; type: physicochemical; conditions: water, 25° C.
Experimental: The suspension was equilibrated at 25° C. for 24 hours then the pH was measured. The suspension was then filtered through a glass fibre C filter into a 96 well plate. […] Quantitation was by HPLC with reference to a standard solution of approximately 0.1 mg.ml^−1 in DMSO. Different volumes of the standard, diluted and undiluted sample solutions were injected.
Analysis was performed on an Agilent HP1100 series system equipped with a diode array detector and using ChemStation software vB.02.01-SR1.

[4] = Oral dosing of amorphous phase A and Form C in rats; type: in vivo
[5] = female, CD-1, mouse, in vivo, po, 250 mg/kg/day, 4 days
Experimental: Twenty-four hours following the final drug administration mice were placed into an enclosed Plexiglas chamber and exposed to CO2 for a period of 30-60 seconds or until breathing ceased. They were then removed subject to cervical dislocation and blood taken via a cardiac puncture. Mice were next placed in a supine position and a midline incision made. All organs were inspected and the livers removed by careful dissection. Liver weights were recorded as well as any gross abnormalities.

CYP2C19 = CYP2C19 (Homo sapiens (Human), UniProt P33261); test: Extracellular cytochrome P450 inhibition (microsomes); type: in vitro ADME; conditions: mephenytoin 4′-hydroxylation
Sequence of CYP2C19 (P33261 whole entry): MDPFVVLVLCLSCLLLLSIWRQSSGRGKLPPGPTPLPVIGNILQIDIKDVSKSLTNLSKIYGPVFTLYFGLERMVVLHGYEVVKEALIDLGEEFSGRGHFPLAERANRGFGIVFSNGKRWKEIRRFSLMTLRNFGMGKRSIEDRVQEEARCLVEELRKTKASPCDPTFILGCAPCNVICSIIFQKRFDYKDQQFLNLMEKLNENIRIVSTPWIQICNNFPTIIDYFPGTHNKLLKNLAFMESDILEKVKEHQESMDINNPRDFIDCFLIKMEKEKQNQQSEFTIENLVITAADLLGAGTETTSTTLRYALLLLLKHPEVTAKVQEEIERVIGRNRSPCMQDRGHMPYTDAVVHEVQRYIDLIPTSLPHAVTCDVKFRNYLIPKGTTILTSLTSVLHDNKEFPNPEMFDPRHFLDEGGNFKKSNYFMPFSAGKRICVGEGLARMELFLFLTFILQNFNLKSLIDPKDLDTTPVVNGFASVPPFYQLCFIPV
Description: Final solvent concentrations were 1% (v/v) or less.

[6] = Liquid formulations for oral solutions/suspensions; type: physicochemical; conditions: below pH values of about 9-10
Experimental: Values of pH reported were estimated based on pH indicating strips. […] Accordingly, provided in certain embodiments herein were formulations having a pH above about 9, above about 10 or of about 10. In certain embodiments, the formulation was buffered at a pH of about 10. All formulations prepared were sonicated for about 10 minutes.

[7] = system: whole blood ionophore-stimulated leukotriene LTB4; test: Phase I study: ex vivo ionophore-stimulated LTB4; type: in vivo, human; conditions: in vivo
Description: Study Design: Single center, double-blind, randomized, placebo-controlled, single ascending dose followed by multiple ascending dose study.
Sample Size: (1) Single Dose Phase: eight (8) subjects (6 active, 2 placebo) per dose level; up to 5 dose levels are planned (a total of 40 subjects if all 5 dose levels are completed); and (2) Multiple Dose Phase: eight (8) subjects (6 active, 2 placebo) per dose level; up to 4 dose levels are planned (a total of 32 subjects if all 4 dose levels are completed).
Formulations: Compound 2 was supplied as an oral powder for reconstitution. Placebo solution matched. […] The placebo differed only in the absence of the active.
The following dosing cohorts were used:
Routes of Administration: All doses were administered orally with approximately 100 mL of water rinse. Subjects were fasted for at least 8 hours prior to dosing and for 2 hours after dosing. For BID dosing in the Multiple Dose Phase, when applicable, subjects were fasted for at least 2 hours prior to the second daily dose.
Plasma concentrations of Compound 1 were determined using a validated LC/MS method. Whole blood ionophore-stimulated leukotriene LTB4 and urinary LTE4 production were assayed by ELISA and mass spectrometry, respectively.
Analysis of Samples: Concentrations of Compound 1 was determined in plasma samples collected from subjects. Similarly, concentrations of LTB4 in plasma and urinary LTE4 were determined in blood and urine samples collected.

Q: With `CCOc1ccc(-c2ccc(Cn3c(CC(C)(C)C(=O)[O-])c(SC(C)(C)C)c4cc(OCc5ccc(C)cn5)ccc43)cc2)cn1.[Na+]` [Solvated Form B, sodium 3-[3-(tert-butylsulfanyl)-1-[4-(6-ethoxy-pyridin-3-yl)benzyl]-5-(5-methyl-pyridin-2-yl-methoxy)-1H-indol-2-yl]-2,2-dimethylpropionate] as the compound, how does the hygroscopicity [1] read?
A: hygroscopic

Q: And the “XRPD pattern after the GVS experiment” value ([1]; listed as Polymorph Form B)?
A: becomes almost totally amorphous

Q: And the “water adsorbed (GVS)” value [1]?
A: more than 30%

Q: And the “water adsorbed (GVS)” value ([1]; listed as Polymorph Form B)?
A: more than 30%

Q: And the hygroscopicity ([1]; listed as Polymorph Form B)?
A: hygroscopic

Q: And the “physical and chemical stability” value [2]?
A: physically and chemically stable

Q: With `CCOc1ccc(-c2ccc(Cn3c(CC(C)(C)C(=O)[O-])c(SC(C)(C)C)c4cc(OCc5ccc(C)cn5)ccc43)cc2)cn1.[Na+]` [Amorphous Phase A, sodium 3-[3-(tert-butylsulfanyl)-1-[4-(6-ethoxy-pyridin-3-yl)benzyl]-5-(5-methyl-pyridin-2-yl-methoxy)-1H-indol-2-yl]-2,2-dimethylpropionate] as the compound, how does the hygroscopicity [1] read?
A: hygroscopic

Q: What about the “XRPD pattern after the GVS experiment” value [1] of the same compound?
A: No changes were observed

Q: And the “water adsorbed (GVS)” value [1]?
A: more than 22%

Q: What about the “water adsorbed (GVS)” value ([1]; listed as Amphorous Phase A) of the same compound?
A: more than 20%

Q: And the hygroscopicity ([1]; listed as Amphorous Phase A)?
A: hygroscopic

Q: What about the “XRPD pattern after one week stability study” value [2] of the same compound?
A: remains amorphous

Q: What about the “physical and chemical stability” value ([2]; listed as Amphorous Phase A) of the same compound?
A: chemically stable

Q: And the Concentration of filtrate ([3]; 24 hours)?
A: >10 mg/mL of free base

Q: And the “Appearance of mixture after equilibration for 24 hours” value ([3]; listed as Compound 2 Phase A)?
A: Suspension

Q: And the “pH of unfiltered saturated solution” value ([3]; listed as Compound 2 Phase A)?
A: 9.14

Q: And the “plasma exposures after oral dosing” value [4]?
A: equivalent plasma exposures

Q: Which Liver weight [5] does the source give for `CC(c1cc2ccccc2s1)N(O)C(N)=O` (centres unmarked) [Zileuton, zileuton, reference compound] here?
A: 1.6 ± 0.2

Q: What about the “Liver weight (% body weight)” value [5] of the same compound?
A: 5.5 % body weight

Q: What about the “liver weight change as compared to vehicle control” value [5] of the same compound?
A: 31.0%

Q: Which IC50 (CYP2C19) does the source give for `CCC1(c2ccccc2)C(=O)NC(=O)N(Cc2ccccc2)C1=O` (single isomer, unassigned; (-)) [(−)-N-3-benzyl-phenobarbital, reference compound] here?
A: 2800 nM

Q: Which results are given for `CCOc1ccc(-c2ccc(Cn3c(CC(C)(C)C(=O)O)c(SC(C)(C)C)c4cc(OCc5ccc(C)cn5)ccc43)cc2)cn1` [Compound 1, 3-[3-(tert-butylsulfanyl)-1-[4-(6-ethoxy-pyridin-3-yl)benzyl]-5-(5-methyl-pyridin-2-yl-methoxy)-1H-indol-2-yl]-2,2-dimethylpropanoic acid]?
A: solubility in certain solvent systems [6]: sparingly soluble; plasma concentration at complete inhibition of ionophore-stimulated LTB4 production [7]: 1000 to 1500 ng/mL

Q: What does the source list for `CCOc1ccc(-c2ccc(Cn3c(CC(C)(C)C(=O)[O-])c(SC(C)(C)C)c4cc(OCc5ccc(C)cn5)ccc43)cc2)cn1.[Na+]` [Form C, sodium 3-[3-(tert-butylsulfanyl)-1-[4-(6-ethoxy-pyridin-3-yl)benzyl]-5-(5-methyl-pyridin-2-yl-methoxy)-1H-indol-2-yl]-2,2-dimethylpropionate]?
A: hygroscopicity [1]: non-hygroscopic; also recorded: nonhygroscopic; XRPD pattern after the GVS experiment ([1]; listed as polymorph Form C): No changes were observed; water adsorbed (GVS) [1]: < 9%; water adsorbed (GVS) ([1]; listed as polymorph Form C): 8.2%; hygroscopicity ([1]; listed as polymorph Form C): significantly less hygroscopic than the amorphous material; physical and chemical stability [2]: physically and chemically stable; physical and chemical stability ([2]; 5° C., 25° C./60% RH and 40° C./75% RH for at least one month): physically and chemically stable; XRPD pattern after one week stability study ([2]; listed as polymorph Form C): remains unchanged; plasma exposures after oral dosing [4]: equivalent plasma exposures
